{"source": "patent US7727960B2", "about": "“C5a receptor antagonists” (Jerini AG, priority 2003, dated 2010)", "key": {"[1]": {"tested_on": "Female Wistar rats", "test": "Model of C5a induced neutropenia", "format": "in vivo", "conditions": "i.v. infusion 10 min before 2 μg/kg hrC5a i.v., FIG. 2", "text": "C5a induced neutropenia is a model for shock induced diseases (e.g. septic shock), where the systemic role of C5a such as neutropenia, blood pressure decrease, plays an important role. The reason for the decrease of the neutrophils in the circulation is their C5a triggered binding to the vessel walls. This process of neutrophil recruitment is also playing an important role in many other diseases like reperfusion injury. This model was also described by Short et al. (1999 British Journal of Pharmacology 125: 551-554).\nFemale Wistar rats were anaesthetized i.p. with ketamine (80 mg/kg) and xylazine (12 mg/kg). A catheter was introduced into the jugular veine and the animals were subjected to the following procedure: • 1. Rats were pre-treated with vehicle or compound 149 which is a compound according to the invention, via i.v. infusion. A blood sample was taken one minute prior to that. • 2. 10 min after compound infusion the rats were treated with 2 μg/kg hrC5a i.v. (2 μg/kg over 1 min)\nBlood samples are taken shortly before and at various times after hrC5a administration. • 3. […]\nWhite blood cell count was measured with a haematology-cell-counter. […]\nThe differential cell count is determined as the sum of neutrophils, eosinophils, basophils, lymphocytes and monocytes of 100 cells. Then the percentage of the neutrophils in relation to all white blood cells is calculated."}, "[2]": {"biological_target": "T1, human C5aR (CD88) (Homo sapiens, UniProt P21730)", "T1 construct": "expressed in transfected cells; host or cells: rat basophilic leukemia cells (RBL)", "T1 sequence (P21730 1-350)": "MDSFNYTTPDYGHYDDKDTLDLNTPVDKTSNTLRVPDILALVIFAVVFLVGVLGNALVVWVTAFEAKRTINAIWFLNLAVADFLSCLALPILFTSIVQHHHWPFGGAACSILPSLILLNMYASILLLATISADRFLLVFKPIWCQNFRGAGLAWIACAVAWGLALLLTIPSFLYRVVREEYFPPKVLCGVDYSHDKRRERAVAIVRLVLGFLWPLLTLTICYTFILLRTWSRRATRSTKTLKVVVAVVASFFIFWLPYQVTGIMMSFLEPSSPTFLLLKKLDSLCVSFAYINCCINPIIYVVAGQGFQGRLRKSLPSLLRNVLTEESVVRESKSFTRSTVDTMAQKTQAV", "test": "Determination of EC50 values in an enzyme release assay (agonistic activity, no C5a added)", "format": "cell-based", "conditions": "cellular assay, up to a concentration of at least 1430 nM", "method": "The determination of the EC50 value was performed in a way similar to the procedure described in example 11, with the only exception that 30 μl of the compound to be tested were mixed with 75 μl of the cell suspension described in example 11. There was no preincubation or addition of C5a for stimulation of the enzyme release."}, "[3]": {"biological_target": "T1, human C5aR (CD88)", "test": "Determination of the IC50 value in an enzyme release assay (functional assay, antagonistic activity)", "format": "cell-based"}, "[4]": {"tested_on": "BALB/c mice", "test": "Model of immune complex mediated peritonitis (reverse passive Arthus reaction)", "format": "in vivo", "conditions": "1 mg/kg i.v. 15 min before Arthus reaction, lavage after 6 h, FIG. 1", "method": "Immune complex mediated peritonitis is part of the pathological conditions of immune complex related diseases such as vasculitis, nephritis, arthritis, and farmer's disease. The corresponding animal model was described by Heller et al. (1999 Journal of Immunology 163: 985-994) and takes advantage of the pro-inflammatory effect of immune complexes formation from i.v. administration of the antigen and i.p. administration of the antibody.\nBALB/c mice (6-8 weeks old) were treated i.v. with the compound 149 (1 mg/kg body weight in 200 μl vehicle) which is one in accordance with the present invention, 15 min before the initiation of the reverse passive Arthus reaction. Arthus reaction was induced by the administration of OVA (20 mg/kg i.v. in 200 μl PBS) and polyclonal anti-OVA Ab (rabbit; 800 μg/Maus i.p). After 6 h a peritoenal lavage with 2 ml PBS 0.1% BSA was done. The collected PE-cells were stained with DIFF-Quick. At least 20 visual fields (100× magnification) were analysed for the presence of neutrophils."}}, "note": "Non-standard residues stand in square brackets, D forms with d. Residues, ends and D or L forms follow the SMILES beside them. Bta = N[C@@H](Cc1csc2ccccc12)C(=O)O; d(hLeu) = CC(C)CC[C@@H](N)C(=O)O; Orn = NCCC[C@H](N)C(=O)O"}
{"smiles": "CC(=O)N[C@@H](Cc1ccccc1)C(=O)N[C@@H](CCCN)C(=O)N1CCC[C@H]1C(=O)N[C@H](CCC(C)C)C(=O)N[C@@H](Cc1csc2ccccc12)C(=O)N[C@@H](Cc1ccccc1)C(N)=O", "note": "[Compound 149, Ac-Phe-Orn-Pro-hle-Bta-Phe-NH2] (Ac-F[Orn]P[d(hLeu)][Bta]F-NH2)", "values": [{"measurement": "C5a-induced neutropenia", "setting": "[1]", "value": "reduces significantly C5a-induced neutropenia"}, {"measurement": "agonistic activity (in words)", "setting": "[2]", "value": "pure antagonists"}, {"measurement": "inhibitory activity (in words)", "setting": "[3]", "value": "noteworthy inhibitory activity"}, {"measurement": "influx of pro-inflammatory cells (neutrophils) into the peritoneum", "setting": "[4]", "value": "reduction of the influx of pro-inflammatory cells into the peritoneum"}]}
